# Experimental data as given in ChEMBL document CHEMBL1121966, “(2R*,3S*)-1-[125I]Iodo-2,3-bis(4-hydroxyphenyl)pentane ([125I]iodonorhexestrol) and (2R*,3S*)-1-[77Br]Bromo-2,3-bis(4-hydroxyphenyl)pentane ([77Br]bromonorhexestrol), two gamma-emitting estrogens that show receptor-mediated uptake by target tissues in vivo” (1982).
# Assay: Solvolytic stability of compound was measured relative to p-hydroxyphenethyl bromide
# Assay type: functional, Rattus norvegicus
smiles,measurement,value
Oc1ccc(CCBr)cc1,1/krel,1
